Earlier results as cited in patent US8242172B2, “2,2-dimethylbutyric acid oral pharmaceutical compositions” (Trustees of Boston University, priority 1998, dated 2012).

Tests used:
ΔF508-CFTR [1] = molecular target: T1, ΔF508-CFTR (Homo sapiens, UniProt P13569, DEL508-508); settings: 1 M or 10%
ΔF508-CFTR [2] = molecular target: T1, ΔF508-CFTR; design: primary cultures of nasal polyp epithelia from CF patients (ΔF508 homozygous or heterozygous); endogenous in cells; host or cells: primary nasal polyp epithelia from CF patients; IB3-1 CF bronchial epithelial cell line; settings: 0.1 and 2 mM, up to 7 days in culture; primary nasal polyp epithelia from CF patients or IB3-1
CF patients = settings: human, in vivo
ΔF508-CFTR [3] = settings: IB3-1 cells, 0.1-1 mM; primary nasal epithelia, 5 mM
ΔF508-CFTR [4] = molecular target: T1, ΔF508-CFTR; design: primary cultures of nasal polyp epithelia from CF patients (ΔF508 homozygous or heterozygous); endogenous in cells; host or cells: primary nasal polyp epithelia from CF patients; IB3-1 CF bronchial epithelial cell line; settings: IB3-1 cells, 2.5 mM
ΔF508-CFTR [5] = molecular target: T1, ΔF508-CFTR; settings: up to 300 mM
IB3-1 cells = settings: equimolar concentrations (1-2 mM)
ΔF508-CFTR [6] = settings: 5 mM, 24 hours, C-127 cells

T1 sequence (P13569 with tags, fused parts or gaps DEL508-508): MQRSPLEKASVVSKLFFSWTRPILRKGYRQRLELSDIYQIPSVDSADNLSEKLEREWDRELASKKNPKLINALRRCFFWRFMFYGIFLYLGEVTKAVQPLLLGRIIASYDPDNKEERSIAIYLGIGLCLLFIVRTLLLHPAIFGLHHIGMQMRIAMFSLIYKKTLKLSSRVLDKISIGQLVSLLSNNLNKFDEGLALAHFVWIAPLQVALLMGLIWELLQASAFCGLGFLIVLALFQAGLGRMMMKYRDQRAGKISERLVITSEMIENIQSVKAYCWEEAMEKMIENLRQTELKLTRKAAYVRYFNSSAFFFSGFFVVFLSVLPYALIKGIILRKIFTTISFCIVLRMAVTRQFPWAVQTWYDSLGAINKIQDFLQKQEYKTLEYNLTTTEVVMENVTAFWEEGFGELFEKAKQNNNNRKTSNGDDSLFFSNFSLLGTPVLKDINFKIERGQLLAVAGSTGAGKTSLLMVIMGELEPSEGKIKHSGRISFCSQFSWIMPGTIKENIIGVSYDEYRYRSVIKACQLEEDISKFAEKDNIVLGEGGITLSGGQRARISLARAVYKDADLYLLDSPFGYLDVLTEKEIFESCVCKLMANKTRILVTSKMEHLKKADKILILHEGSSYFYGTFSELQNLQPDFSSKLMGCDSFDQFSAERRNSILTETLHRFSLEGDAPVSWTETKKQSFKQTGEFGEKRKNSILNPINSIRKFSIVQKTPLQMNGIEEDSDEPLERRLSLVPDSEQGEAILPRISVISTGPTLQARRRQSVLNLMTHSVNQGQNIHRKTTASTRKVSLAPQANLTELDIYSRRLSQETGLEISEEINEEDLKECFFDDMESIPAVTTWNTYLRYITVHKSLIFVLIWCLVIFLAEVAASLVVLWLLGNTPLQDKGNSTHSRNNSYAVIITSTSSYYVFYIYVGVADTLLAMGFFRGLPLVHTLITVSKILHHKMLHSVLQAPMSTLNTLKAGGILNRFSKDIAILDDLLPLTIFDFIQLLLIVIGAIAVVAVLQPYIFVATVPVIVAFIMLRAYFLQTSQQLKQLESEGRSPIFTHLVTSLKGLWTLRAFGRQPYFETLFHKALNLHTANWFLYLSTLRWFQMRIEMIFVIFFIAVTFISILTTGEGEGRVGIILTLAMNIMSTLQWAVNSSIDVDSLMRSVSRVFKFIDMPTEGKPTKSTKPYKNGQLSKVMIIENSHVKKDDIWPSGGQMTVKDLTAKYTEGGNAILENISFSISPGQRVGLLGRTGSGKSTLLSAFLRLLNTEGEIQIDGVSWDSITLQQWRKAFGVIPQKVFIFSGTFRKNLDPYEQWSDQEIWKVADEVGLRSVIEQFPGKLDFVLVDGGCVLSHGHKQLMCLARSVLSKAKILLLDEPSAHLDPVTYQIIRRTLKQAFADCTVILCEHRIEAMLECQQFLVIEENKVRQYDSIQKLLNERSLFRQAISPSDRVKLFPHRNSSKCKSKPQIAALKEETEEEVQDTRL

Molecule: OCC(O)CO [glycerol]
- movement of ΔF508-CFTR from the ER to the plasma membrane (ΔF508-CFTR [1]): appears to facilitate movement of ΔF508-CFTR from the ER to the plasma membrane

Molecule: O=C(O)CCCc1ccccc1 [4PBA, 4-phenylbutyrate]
- forskolin-activated chloride secretion (ΔF508-CFTR [2]): restoration of forskolin-activated chloride secretion
- clinical tolerability (CF patients): not well tolerated
- higher molecular mass forms of CFTR (immunoblot) (ΔF508-CFTR [3]): appearance of higher molecular mass forms of CFTR
- protein kinase A-activated, linear, 10 pS chloride channels at plasma membrane (ΔF508-CFTR [4]): chloride channels appeared at the plasma membrane

Molecule: CCCC(=O)O [butyrate, butyric acid]
- cAMP-stimulation indicative of chloride ion transport (ΔF508-CFTR [5]): no increases in cAMP-stimulation was observed
- cell morphology and growth rate (IB3-1 cells): morphologic changes in IB3-1 cells, with rounding of cells and decreased growth rate
- ~180-kD mature glycosylated species of CFTR (ΔF508-CFTR [6]): not observed
- ΔF508-CFTR mRNA by Northern analysis (ΔF508-CFTR [6]): massive increase in ΔF508-CFTR mRNA

Molecule: arginine butyrate
- effectiveness at continuous administration (thalassemic patients; continuous administration at about 2000 mg/kg patient weight): effective
- benefit measured by rise in fetal hemoglobin levels (thalassemic patients; pulses, about 400 to 1500 mg/kg, thalassemic patients): surprisingly more beneficial
